Results taken from ChEMBL document CHEMBL5291721, “A preclinical secondary pharmacology resource illuminates target-adverse drug reaction associations of marketed drugs” (Nat Commun, 2023).

How the values were obtained:
B2 bradykinin receptor = target: T1, B2 bradykinin receptor (Homo sapiens, UniProt P30411)
T1 sequence (P30411 whole entry): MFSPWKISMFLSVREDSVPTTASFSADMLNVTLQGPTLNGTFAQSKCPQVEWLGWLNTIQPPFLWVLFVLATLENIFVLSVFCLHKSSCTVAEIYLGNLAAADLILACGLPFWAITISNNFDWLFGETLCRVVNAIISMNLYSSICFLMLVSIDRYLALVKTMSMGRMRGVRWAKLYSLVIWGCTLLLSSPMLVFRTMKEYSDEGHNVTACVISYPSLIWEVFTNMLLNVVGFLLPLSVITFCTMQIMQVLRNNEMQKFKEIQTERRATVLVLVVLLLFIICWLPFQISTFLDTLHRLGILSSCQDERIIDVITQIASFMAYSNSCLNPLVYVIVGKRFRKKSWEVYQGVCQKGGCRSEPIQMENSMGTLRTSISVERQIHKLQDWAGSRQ

[1] = target: Voltage-gated inwardly rectifying potassium channel KCNH2 (Homo sapiens, UniProt Q12809); assay type: functional; conditions: read-out: AC50
Sequence of Voltage-gated inwardly rectifying potassium channel KCNH2 (Q12809 whole entry): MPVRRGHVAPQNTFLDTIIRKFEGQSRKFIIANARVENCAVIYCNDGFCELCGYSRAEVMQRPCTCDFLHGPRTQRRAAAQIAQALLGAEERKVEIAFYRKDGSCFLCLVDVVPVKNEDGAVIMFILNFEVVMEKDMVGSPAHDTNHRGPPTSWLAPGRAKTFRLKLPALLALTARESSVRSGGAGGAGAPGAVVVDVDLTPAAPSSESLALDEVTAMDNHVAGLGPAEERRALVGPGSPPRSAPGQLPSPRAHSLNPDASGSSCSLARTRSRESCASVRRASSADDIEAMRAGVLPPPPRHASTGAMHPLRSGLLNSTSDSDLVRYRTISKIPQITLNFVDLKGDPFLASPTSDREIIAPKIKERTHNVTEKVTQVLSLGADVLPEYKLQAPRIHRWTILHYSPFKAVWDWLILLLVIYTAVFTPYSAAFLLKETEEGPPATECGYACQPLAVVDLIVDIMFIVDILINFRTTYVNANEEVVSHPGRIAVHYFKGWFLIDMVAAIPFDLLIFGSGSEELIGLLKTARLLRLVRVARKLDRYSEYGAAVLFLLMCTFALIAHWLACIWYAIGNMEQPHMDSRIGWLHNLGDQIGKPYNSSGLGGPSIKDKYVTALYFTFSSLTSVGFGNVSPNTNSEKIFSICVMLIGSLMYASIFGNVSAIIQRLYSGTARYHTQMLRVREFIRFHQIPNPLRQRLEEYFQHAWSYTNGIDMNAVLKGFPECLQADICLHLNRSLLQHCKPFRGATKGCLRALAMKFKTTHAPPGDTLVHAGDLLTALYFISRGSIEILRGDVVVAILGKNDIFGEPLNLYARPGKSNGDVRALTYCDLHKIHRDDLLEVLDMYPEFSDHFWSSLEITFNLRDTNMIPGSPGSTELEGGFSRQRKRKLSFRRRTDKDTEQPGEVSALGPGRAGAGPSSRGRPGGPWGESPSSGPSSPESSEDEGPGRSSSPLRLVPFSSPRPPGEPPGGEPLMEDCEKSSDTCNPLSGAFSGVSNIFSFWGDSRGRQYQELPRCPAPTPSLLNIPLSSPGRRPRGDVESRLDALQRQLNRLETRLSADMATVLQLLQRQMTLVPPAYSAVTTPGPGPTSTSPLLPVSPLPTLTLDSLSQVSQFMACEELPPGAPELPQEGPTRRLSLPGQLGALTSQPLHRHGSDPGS

Melanocortin receptor 3 = Melanocortin receptor 3 (Homo sapiens, UniProt P41968)
Sequence of Melanocortin receptor 3 (P41968 whole entry): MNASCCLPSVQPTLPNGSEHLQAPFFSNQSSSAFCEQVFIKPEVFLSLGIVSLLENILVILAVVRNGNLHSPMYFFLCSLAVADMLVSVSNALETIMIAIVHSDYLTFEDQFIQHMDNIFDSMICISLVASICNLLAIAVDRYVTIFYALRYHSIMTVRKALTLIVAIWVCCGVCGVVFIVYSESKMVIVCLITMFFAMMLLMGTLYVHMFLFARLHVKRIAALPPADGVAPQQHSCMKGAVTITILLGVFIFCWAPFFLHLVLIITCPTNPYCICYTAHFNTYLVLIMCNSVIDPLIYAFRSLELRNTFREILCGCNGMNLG

[2] = target: T2, Alpha-2A adrenergic receptor (Homo sapiens, UniProt P08913); assay type: functional, cell-based
T2 sequence (P08913 whole entry): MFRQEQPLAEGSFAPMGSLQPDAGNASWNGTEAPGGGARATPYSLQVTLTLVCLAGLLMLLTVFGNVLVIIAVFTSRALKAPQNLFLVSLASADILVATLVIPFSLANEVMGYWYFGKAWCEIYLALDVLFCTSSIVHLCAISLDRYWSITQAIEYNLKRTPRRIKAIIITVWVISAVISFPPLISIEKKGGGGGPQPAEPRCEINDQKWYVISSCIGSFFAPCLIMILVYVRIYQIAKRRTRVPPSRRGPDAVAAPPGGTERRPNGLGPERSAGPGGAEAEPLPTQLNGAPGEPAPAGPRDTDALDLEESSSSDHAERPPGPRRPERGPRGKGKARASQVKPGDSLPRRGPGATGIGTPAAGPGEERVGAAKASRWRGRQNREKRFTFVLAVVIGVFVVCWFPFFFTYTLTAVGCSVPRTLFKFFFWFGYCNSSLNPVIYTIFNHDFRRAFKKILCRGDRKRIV

[3] = target: T3, Muscarinic acetylcholine receptor M2 (Homo sapiens, UniProt P08172); assay type: functional, cell-based
T3 sequence (P08172 whole entry): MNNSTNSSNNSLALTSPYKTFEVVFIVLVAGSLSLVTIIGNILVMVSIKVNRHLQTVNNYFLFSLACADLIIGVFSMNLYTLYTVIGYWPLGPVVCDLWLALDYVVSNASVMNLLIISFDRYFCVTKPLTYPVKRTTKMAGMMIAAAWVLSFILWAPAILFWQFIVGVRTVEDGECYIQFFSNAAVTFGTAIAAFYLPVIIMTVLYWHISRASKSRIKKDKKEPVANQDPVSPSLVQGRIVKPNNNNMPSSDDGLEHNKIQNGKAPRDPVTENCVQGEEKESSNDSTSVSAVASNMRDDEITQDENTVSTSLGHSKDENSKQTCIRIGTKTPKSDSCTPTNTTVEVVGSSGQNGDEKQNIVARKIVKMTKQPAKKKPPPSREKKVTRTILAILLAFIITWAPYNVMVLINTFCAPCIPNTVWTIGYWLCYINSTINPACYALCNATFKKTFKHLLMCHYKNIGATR

[4] = target: T4, Alpha-2C adrenergic receptor (Homo sapiens, UniProt P18825); assay type: functional
T4 sequence (P18825 whole entry): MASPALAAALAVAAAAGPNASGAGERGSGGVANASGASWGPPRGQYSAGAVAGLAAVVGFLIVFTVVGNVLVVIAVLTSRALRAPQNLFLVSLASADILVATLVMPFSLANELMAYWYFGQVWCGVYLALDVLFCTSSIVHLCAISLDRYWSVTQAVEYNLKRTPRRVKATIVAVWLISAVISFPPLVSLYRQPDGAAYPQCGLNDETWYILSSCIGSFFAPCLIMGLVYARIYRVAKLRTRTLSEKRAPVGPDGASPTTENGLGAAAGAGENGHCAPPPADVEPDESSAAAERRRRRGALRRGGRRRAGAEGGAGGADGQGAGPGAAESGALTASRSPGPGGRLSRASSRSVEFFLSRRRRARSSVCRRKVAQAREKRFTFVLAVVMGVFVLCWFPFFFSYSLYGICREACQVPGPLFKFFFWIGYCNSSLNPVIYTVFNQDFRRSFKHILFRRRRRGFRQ

[5] = target: Muscarinic acetylcholine receptor M3 (Homo sapiens, UniProt P20309)
Sequence of Muscarinic acetylcholine receptor M3 (P20309 whole entry): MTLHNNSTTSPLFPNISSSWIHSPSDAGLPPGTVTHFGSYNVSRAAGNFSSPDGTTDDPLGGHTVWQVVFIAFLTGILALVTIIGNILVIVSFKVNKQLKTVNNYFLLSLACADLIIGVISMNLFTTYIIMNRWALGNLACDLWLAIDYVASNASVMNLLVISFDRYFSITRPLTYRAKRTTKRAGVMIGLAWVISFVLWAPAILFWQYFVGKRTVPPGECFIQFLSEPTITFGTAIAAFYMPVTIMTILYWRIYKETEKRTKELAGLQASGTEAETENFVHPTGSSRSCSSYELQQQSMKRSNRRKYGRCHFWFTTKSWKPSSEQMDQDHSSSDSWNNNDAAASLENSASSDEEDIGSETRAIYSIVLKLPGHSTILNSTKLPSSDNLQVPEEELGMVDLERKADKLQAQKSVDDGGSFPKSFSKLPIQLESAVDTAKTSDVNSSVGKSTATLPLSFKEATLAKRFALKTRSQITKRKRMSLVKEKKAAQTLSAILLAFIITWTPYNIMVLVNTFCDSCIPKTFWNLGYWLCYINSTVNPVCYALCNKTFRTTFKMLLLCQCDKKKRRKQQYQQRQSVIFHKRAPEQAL

D(1A) dopamine receptor = D(1A) dopamine receptor (Homo sapiens, UniProt P21728); assay type: functional, cell-based
Sequence of D(1A) dopamine receptor (P21728 whole entry): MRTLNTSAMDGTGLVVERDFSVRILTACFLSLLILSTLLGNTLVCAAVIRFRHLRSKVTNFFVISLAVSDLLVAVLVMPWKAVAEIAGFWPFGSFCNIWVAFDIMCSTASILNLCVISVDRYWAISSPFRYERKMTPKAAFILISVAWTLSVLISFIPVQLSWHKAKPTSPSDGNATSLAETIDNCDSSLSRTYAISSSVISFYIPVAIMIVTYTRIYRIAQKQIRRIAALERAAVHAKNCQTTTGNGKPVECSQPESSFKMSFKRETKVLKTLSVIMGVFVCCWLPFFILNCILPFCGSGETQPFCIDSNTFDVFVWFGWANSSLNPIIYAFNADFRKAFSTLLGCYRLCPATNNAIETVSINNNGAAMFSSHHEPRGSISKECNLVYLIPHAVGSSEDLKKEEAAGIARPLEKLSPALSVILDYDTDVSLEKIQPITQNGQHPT

[6] = target: 5-hydroxytryptamine receptor 2B (Homo sapiens, UniProt P41595); assay type: functional, cell-based
Sequence of 5-hydroxytryptamine receptor 2B (P41595 whole entry): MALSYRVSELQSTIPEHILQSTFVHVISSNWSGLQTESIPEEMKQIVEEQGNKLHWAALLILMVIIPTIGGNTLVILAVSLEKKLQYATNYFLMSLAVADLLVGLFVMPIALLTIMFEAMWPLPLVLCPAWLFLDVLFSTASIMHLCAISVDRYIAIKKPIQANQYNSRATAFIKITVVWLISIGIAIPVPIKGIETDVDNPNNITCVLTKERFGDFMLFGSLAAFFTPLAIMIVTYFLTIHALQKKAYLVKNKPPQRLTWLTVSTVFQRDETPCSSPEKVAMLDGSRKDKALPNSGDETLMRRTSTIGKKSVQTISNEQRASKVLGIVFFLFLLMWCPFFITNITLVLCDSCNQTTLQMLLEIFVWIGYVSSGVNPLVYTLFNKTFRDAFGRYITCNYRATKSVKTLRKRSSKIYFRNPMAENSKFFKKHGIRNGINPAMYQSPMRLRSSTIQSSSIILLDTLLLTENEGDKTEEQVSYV

Vasopressin V2 receptor = Vasopressin V2 receptor (Homo sapiens, UniProt P30518)
Sequence of Vasopressin V2 receptor (P30518 whole entry): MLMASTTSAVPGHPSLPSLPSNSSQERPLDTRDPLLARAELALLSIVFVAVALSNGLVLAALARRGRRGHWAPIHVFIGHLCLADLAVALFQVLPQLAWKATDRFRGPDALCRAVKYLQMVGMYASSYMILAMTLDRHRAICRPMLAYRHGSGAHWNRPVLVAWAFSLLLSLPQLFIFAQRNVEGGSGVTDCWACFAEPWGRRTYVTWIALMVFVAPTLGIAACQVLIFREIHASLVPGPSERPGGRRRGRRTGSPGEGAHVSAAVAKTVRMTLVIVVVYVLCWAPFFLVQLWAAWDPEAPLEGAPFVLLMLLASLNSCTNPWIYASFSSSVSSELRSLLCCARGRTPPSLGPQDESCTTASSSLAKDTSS

Histamine H2 receptor = Histamine H2 receptor (Homo sapiens, UniProt P25021); assay type: functional, cell-based
Sequence of Histamine H2 receptor (P25021 whole entry): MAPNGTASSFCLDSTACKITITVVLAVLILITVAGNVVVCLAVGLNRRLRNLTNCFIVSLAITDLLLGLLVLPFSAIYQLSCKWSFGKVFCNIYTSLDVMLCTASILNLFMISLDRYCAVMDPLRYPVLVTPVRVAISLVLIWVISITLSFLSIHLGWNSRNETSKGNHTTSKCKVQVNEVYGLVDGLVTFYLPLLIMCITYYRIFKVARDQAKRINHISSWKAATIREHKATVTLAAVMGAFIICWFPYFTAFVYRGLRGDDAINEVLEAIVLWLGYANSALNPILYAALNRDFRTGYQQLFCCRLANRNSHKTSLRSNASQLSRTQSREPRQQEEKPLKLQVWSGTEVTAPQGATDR

[7] = target: T5, Cholecystokinin receptor type A (Homo sapiens, UniProt P32238)
T5 sequence (P32238 whole entry): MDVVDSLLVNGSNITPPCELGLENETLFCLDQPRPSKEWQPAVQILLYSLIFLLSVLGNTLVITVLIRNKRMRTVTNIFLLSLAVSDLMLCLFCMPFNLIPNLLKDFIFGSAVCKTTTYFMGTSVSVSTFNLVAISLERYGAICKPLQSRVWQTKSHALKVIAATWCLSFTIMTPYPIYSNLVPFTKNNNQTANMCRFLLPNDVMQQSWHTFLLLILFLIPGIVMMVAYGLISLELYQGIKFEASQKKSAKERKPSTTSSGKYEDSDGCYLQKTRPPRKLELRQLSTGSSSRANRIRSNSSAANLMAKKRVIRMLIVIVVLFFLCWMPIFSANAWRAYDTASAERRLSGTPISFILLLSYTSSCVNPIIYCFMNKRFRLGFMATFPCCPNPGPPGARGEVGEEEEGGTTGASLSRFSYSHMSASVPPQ
Note: assay procedure not described here.

SMILES	AC50 (B2 bradykinin receptor)	AC50 [1]	AC50 (Melanocortin receptor 3)	AC50 [2]	AC50 [3]	AC50 [4]	AC50 [5]	AC50 (D(1A) dopamine receptor)	AC50 [6]	AC50 (Vasopressin V2 receptor)	AC50 (Histamine H2 receptor)	AC50 [7]
COc1ccc(-c2ccc3cc(C(=O)O)ccc3c2)cc1C12CC3CC(CC(C3)C1)C2	> 30 µM	> 30 µM	> 30 µM	> 30 µM	> 30 µM	> 30 µM	> 30 µM	> 30 µM	> 30 µM	> 30 µM	> 30 µM	> 30 µM
CCOC(=O)[C@H](CCc1ccccc1)N[C@@H](C)C(=O)N1C(=O)N(C)C[C@H]1C(=O)O	> 30 µM	> 30 µM	> 30 µM	> 30 µM	> 30 µM	> 30 µM	> 30 µM	> 30 µM	> 30 µM	> 30 µM	> 30 µM	> 30 µM
CC(C)(C)C(=O)Oc1ccc(S(=O)(=O)Nc2ccccc2C(=O)NCC(=O)O)cc1	> 30 µM	> 30 µM	> 30 µM	> 30 µM	> 30 µM	> 30 µM	> 30 µM	> 30 µM	> 30 µM	> 30 µM	> 30 µM	> 30 µM
O=C(O)CCCCCCNC1c2ccccc2CCc2ccccc21 [AMINEPTINE]	> 30 µM	> 30 µM	> 30 µM	> 30 µM	> 30 µM	> 30 µM	> 30 µM	> 30 µM	> 30 µM	> 30 µM	> 30 µM	> 30 µM
COc1ccccc1OCCNCC(O)c1ccc(C)c(S(N)(=O)=O)c1 (centres undefined) [AMOSULALOL]	> 30 µM	15 µM	> 30 µM	9.1 µM	> 30 µM	2.3 µM	> 30 µM	> 30 µM	1.6 µM	> 30 µM	> 30 µM	> 30 µM
O=C(O)CCCCCCCC(=O)O [AZELAIC ACID]	> 10 µM	> 30 µM	> 10 µM	> 10 µM	> 10 µM	> 10 µM	> 30 µM	> 30 µM	> 10 µM	> 10 µM	> 30 µM	> 10 µM
COC(=O)C1=C(C)NC(C)=C(C(=O)OC2CCCN(Cc3ccccc3)C2)C1c1cccc([N+](=O)[O-])c1 (centres undefined) [BENIDIPINE]	> 30 µM	2.01 µM	> 30 µM	> 30 µM	> 30 µM	27 µM	> 30 µM	> 30 µM	> 30 µM	> 30 µM	> 30 µM	> 30 µM
C=CCC1(CC(C)C)C(=O)NC(=O)NC1=O [BUTALBITAL]	> 10 µM	> 30 µM	> 10 µM	> 10 µM	> 10 µM	> 30 µM	> 30 µM	> 30 µM	> 10 µM	> 10 µM	> 30 µM	> 10 µM
O=C(O)C1=C(CSc2nnnn2CS(=O)(=O)O)CS[C@@H]2[C@H](NC(=O)[C@H](O)c3ccccc3)C(=O)N12 [CEFONICID]	> 30 µM	> 30 µM	> 30 µM	> 30 µM	> 30 µM	> 30 µM	> 30 µM	> 30 µM	> 30 µM	> 30 µM	> 30 µM	> 30 µM
CCN1CCN(C(=O)N[C@@H](C(=O)N[C@@H]2C(=O)N3C(C(=O)O)=C(CSc4nnnn4C)CS[C@H]23)c2ccc(O)cc2)C(=O)C1=O [CEFOPERAZONE]	> 30 µM	> 30 µM	> 30 µM	> 30 µM	> 30 µM	> 30 µM	> 30 µM	> 30 µM	> 30 µM	> 30 µM	> 30 µM	> 30 µM
Cc1cc(O)c(C(=O)N[C@@H](C(=O)N[C@@H]2C(=O)N3C(C(=O)O)=C(CSc4nnnn4C)CS[C@H]23)c2ccc(O)cc2)cn1 [CEFPIRAMIDE]	> 30 µM	> 30 µM	> 30 µM	> 30 µM	> 30 µM	> 30 µM	> 30 µM	> 30 µM	> 30 µM	> 30 µM	> 30 µM	> 30 µM
Nc1nc(/C(=C/CC(=O)O)C(=O)N[C@@H]2C(=O)N3C(C(=O)O)=CCS[C@H]23)cs1 [CEFTIBUTEN]	> 30 µM	> 30 µM	> 30 µM	> 30 µM	> 30 µM	> 30 µM	> 30 µM	> 30 µM	> 30 µM	> 30 µM	> 30 µM	> 30 µM
COc1ccc2c3c1O[C@H]1[C@@H](O)C=C[C@H]4[C@@H](C2)N(C)CC[C@@]341 [CODEINE]	> 30 µM	> 30 µM	> 30 µM	> 10 µM	> 10 µM	> 10 µM	> 30 µM	> 10 µM	> 10 µM	> 30 µM	> 10 µM	> 30 µM
CC(=O)OCC(=O)[C@@]12N=C(C)O[C@@H]1C[C@H]1[C@@H]3CCC4=CC(=O)C=C[C@]4(C)[C@H]3[C@@H](O)C[C@@]12C [DEFLAZACORT]	> 30 µM	> 30 µM	> 30 µM	> 30 µM	> 30 µM	> 30 µM	> 30 µM	> 30 µM	> 30 µM	> 30 µM	> 30 µM	> 30 µM
CC(CC(c1ccccc1)c1ccccc1)NC(C)(C)C (centres undefined) [TERODILINE]	> 30 µM		> 30 µM	> 30 µM	3.1 µM	> 30 µM	1.1 µM	> 30 µM	> 30 µM	> 30 µM	> 30 µM	> 30 µM
